Laboratory results as given in patent US20240426807A1, “SCREENING SYSTEM” (Givaudan SA, priority 2021, published 2024).
Entries after “also recorded” stand apart in the source; their conditions may differ.

Key:
Assay type in all cases: cell-based
OR5AN1 [1] = target: T1, OR5AN1 (Homo sapiens, UniProt Q8NGI8); assay: Ligand-induced blasticidin resistance, OR5AN1 cells (pGL4.29-CRE-BLAST-OR); conditions: HEK293T OR5AN1, odorant 10 μM, blasticidin 0.5-256 μg/ml, PrestoBlue viability day 4
T1 construct: expressed in transfected cells
T1 sequence (Q8NGI8 1-311): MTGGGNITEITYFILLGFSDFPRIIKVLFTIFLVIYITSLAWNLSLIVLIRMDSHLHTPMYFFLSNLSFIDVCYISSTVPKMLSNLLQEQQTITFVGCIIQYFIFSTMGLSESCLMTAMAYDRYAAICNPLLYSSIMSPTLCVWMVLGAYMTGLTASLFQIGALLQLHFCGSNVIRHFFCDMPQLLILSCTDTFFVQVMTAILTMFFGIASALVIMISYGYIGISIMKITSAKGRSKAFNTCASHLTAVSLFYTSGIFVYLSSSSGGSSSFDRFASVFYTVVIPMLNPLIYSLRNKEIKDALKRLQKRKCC
Excerpt: To generate a vector allowing positive selection of cell clones with a functional expression of a specific OR gene, a blasticidin resistance gene was placed downstream of SEQ ID NO: 4. The pGL4.29-CRE-Puro-OR vector generated as described in Example 1 was digested with BgIII and FseI to remove the comprised basal promoter and the complete puromycin resistance gene. The removed basal promoter sequence was amplified with the primers […] (SEQ ID NO: 28), […] (SEQ ID NO: 63), and the blasticidin S deaminase (bsd, SEQ ID NO: 64) encoding sequence was amplified by PCR using the primers […] (SEQ ID NO: 66) […] (SEQ ID NO: 67). The two overlapping PCR products were joined by fusion PCR using primers […] (SEQ ID NO: 28) and […] (SEQ ID NO: 68). The resulting DNA fragment was digested with BgIII/FseI and ligated into the digested vector to generate pGL4.29-CRE-Blast-OR.
This vector was used to generate stable cell lines as described in Example 1.
Stable clones containing a stable insertion of the pGL4.29-CRE-BLAST-OR construct with the receptor OR5AN1 (NCBI Genbank Gene ID: 390195) were then plated at a density of 3000 cells/per well in 100 μl Dubelcco's Modified Eagle medium (DMEM) in polyethyleneimide-coated, white 96 well microtiter plates with a transparent bottom. After cells were allowed to adhere for 24 h, 50 μl of medium containing different odorants (musk ketone or ethyl vanillin at 40 μM) was added to each well resulting in an odorant concentration of 13.3 μM. 6 h after odorant addition, 50 μl of medium containing blasticidin was added to reach a final concentration of 0.5-256 μg/ml in 10 two-fold dilution steps (day 1 of selection). This step further diluted the odorant to 10 μM. On day 4 of the selection (72 h after blasticidin addition), medium from each well was removed completely, 100 μl PrestoBlue® cell viability reagent (ThermoFisher Scientific, Catalog No: 14200-083) diluted in phosphate buffered saline containing 1 mg/ml glucose was added to each well and cells were incubated at 37° C. until a color change was visible in the wells containing no blasticidin. The fluorescence was determined at 560 excitation and 590 nm emission to assess relative cell metabolic activity, which is the net result of cell growth and cell killing in presence of the different blasticidin concentrations. The result was expressed as % viability relative to controls with no cells (0%) and cells treated with olfactory ligand only (100%).

OR10G7 = target: T2, OR10G7 (Homo sapiens, UniProt Q8NGN6, T5S); assay: Ligand-induced OR-dependent puromycin resistance, OR10G7 cells; conditions: HEK293T, pGL4.29-CRE-Puro-Hygro-OR with OR10G7; musk ketone 10 μM, eugenol or isoeugenol 1 μM, ultravanil or vanitrope 100 μM; puromycin 0.015-16 μg/ml; PrestoBlue viability day 4
T2 construct: expressed in transfected cells
T2 sequence (Q8NGN6 1-311 T5S): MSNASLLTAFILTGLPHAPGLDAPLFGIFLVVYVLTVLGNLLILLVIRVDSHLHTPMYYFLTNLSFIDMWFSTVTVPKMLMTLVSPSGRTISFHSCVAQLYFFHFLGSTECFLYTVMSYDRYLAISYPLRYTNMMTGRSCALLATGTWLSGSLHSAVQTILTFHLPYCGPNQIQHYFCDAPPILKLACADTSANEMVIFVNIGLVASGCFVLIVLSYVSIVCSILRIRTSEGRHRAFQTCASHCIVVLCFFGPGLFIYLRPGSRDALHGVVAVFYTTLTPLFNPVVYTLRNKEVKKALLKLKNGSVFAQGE
Procedure: (§1) Stable clones selected with hygromycin containing a stable insertion of the pGL4.29-CRE-Puro-Hygro-OR construct described in Example 1 with either one of the receptors OR10G7, OR10G9 or OR5AN1 (NCBI Genbank Gene ID 390265, 219870 and 390195) were plated at a density of 3000 cells/per well in 200 μl Dubelcco's Modified Eagle medium (DMEM) in polyethyleneimide-coated, white 96 well microtiter plates with a transparent bottom. After cells were allowed to adhere for 24 h, they were exposed to different odorants (musk ketone at 10 μM, eugenol or isoeugenol at 1 μM, ultravanil or vanitrope at 100 μM). 7 h after odorant addition, 100 μl of the medium was removed and replaced with fresh medium with the same odorant concentrations and, in addition, puromycin to reach a final concentration of 0.015-16 μg/ml in 11 twofold dilution steps (day 1 of selection). On day 2 and 3, 100 μl of the medium was again removed and replaced with fresh medium with the same concentration of odorant and puromycin. On day 4 of the selection, medium from each well was removed completely, 100 ul PrestoBlue® cell viability reagent (ThermoFisher Scientific, Catalog No: 14200-083) diluted in phosphate buffered saline was added to each well and cells were incubated at 37° C. until a color change was visible in the wells containing no puromycin. The fluorescence was determined at 560 excitation and 590 nm emission to assess relative cell metabolic activity, which is the net result of cell growth and cell killing in presence of the different puromycin concentrations. The result was expressed as % viability relative to controls with no cells (0%) and cells treated with olfactory ligand only (100%).

OR10G9 = target: T3, OR10G9 (Homo sapiens, UniProt Q8NGN4); assay: Ligand-induced OR-dependent puromycin resistance, OR10G9 cells; conditions: HEK293T, pGL4.29-CRE-Puro-Hygro-OR with OR10G9; musk ketone 10 μM, eugenol or isoeugenol 1 μM, ultravanil or vanitrope 100 μM; puromycin 0.015-16 μg/ml; PrestoBlue viability day 4
T3 construct: expressed in transfected cells
T3 sequence (Q8NGN4 1-311): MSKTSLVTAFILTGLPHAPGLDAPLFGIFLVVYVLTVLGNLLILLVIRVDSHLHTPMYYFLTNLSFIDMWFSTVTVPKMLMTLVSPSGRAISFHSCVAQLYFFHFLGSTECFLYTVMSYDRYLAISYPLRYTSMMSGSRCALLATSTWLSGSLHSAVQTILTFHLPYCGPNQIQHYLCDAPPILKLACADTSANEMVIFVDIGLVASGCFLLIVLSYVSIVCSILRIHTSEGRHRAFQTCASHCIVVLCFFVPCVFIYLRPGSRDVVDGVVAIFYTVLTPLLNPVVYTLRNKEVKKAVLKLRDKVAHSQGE
Procedure: as §1

OR5AN1 [2] = target: T1, OR5AN1; assay: Ligand-induced OR-dependent puromycin resistance, OR5AN1 cells; conditions: HEK293T, pGL4.29-CRE-Puro-Hygro-OR with OR5AN1; musk ketone 10 μM, eugenol or isoeugenol 1 μM, ultravanil 100 μM; puromycin 0.015-16 μg/ml; PrestoBlue viability day 4
Procedure: as §1

[3] = target: T4, pool of cells with OR5A1, OR5A2, OR5AN1, OR6Y1, OR10G4, OR10G7 or OR10G9 (Homo sapiens, UniProt Q8NGN3); assay: Selection of cognate-receptor cells from a pool of OR-expressing cells with the target ligand and puromycin; conditions: 100 μM vanitrope, puromycin 1 μg/ml, pool of 7 OR transfections
T4 construct: expressed in transfected cells; host or cells: HEK293T stably expressing RTP1S and RTP2; 7 separate transfections pooled
T4 sequence (Q8NGN3 1-311): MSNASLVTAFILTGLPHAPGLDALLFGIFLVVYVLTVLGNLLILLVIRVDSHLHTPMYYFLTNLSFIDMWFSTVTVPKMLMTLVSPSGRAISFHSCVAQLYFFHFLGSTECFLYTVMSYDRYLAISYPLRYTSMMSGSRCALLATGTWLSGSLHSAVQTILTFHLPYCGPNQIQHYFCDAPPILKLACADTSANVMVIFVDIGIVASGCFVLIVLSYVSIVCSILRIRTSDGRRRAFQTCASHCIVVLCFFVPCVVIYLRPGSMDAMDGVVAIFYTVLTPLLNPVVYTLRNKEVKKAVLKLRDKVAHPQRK
Procedure: For many ligands the cognate OR receptors are not known (“orphan receptors”), or it is unknown among a pool of receptors, which one has the best affinity for a ligand of interest, e.g. a perfumery note of particular interest. Thus, the ligand-induced selection pressure can be used to enrich a specific OR-expressing cell from a pool of OR-expressing cells in the presence of a ligand of interest. HEK293T cells stably expressing RTP1S and RTP2 were seeded into 7 wells of 6-well plates at 330,000 cells/well.
The next day, the cells of each well were transfected with 2 μg of a PvuI-linearized pGL4.29-CRE-Puro-Hygro-OR construct harboring one of the receptors OR5A1 (NCBI Genbank Gene ID: 219982), OR5A2 (NCBI Genbank Gene ID: 219981), OR5AN1 NCBI Genbank Gene ID: 390195, SEQ ID NO: 70), OR6Y1 (NCBI Genbank Gene ID: 391112), OR10G4 (NCBI Genbank Gene ID: 390264, SEQ ID NO: 72), OR10G7 (NCBI Genbank Gene ID: 390265, SEQ ID NO: 71), or OR10G9 (NCBI Genbank Gene ID: 219870). 24 h after transfection, the cells of all 7 transfections were harvested and pooled. 350 cells of this pool of cells with different OR genes inserted were then seeded into each well of seven 96-well plates.
3 days later, cells were stimulated with ligands for either OR5AN1 (10 μM musk ketone), OR10G7 (1 μM eugenol), or OR10G4 (100 μM vanitrope). One plate was treated with DMSO only. 6h after the addition of the OR ligands, puromycin was added to each plate at a final concentration of 1 μg/ml. On every day during the following week, the medium on all plates was replaced with fresh medium containing the corresponding ligand and puromycin. The plates were then searched for wells containing only a single colony of puromycin-resistant cells. The cells of those colonies were transferred to larger plates and grown until they had multiplied to about 8 Mio cells. The genomic DNA of 2 Mio cells of each clone were isolated using the Puregene kit according to the manufacturer's protocol. […]

OR5A2 (clone 3) = target: T5, OR5A2 (clone 3) (Homo sapiens, UniProt Q8NGI9); assay: Ligand-induced puromycin resistance of isolated clone 3 containing OR5A2; conditions: for puromycin resistance of clone 3 in presence of odorant: clone 3 (OR5A2), 11 concentrations of puromycin, co-treated with olfactory ligands
T5 construct: expressed in transfected cells; clone 3 selected with musk ambrette and puromycin
T5 sequence (Q8NGI9 with tags, fused parts or gaps): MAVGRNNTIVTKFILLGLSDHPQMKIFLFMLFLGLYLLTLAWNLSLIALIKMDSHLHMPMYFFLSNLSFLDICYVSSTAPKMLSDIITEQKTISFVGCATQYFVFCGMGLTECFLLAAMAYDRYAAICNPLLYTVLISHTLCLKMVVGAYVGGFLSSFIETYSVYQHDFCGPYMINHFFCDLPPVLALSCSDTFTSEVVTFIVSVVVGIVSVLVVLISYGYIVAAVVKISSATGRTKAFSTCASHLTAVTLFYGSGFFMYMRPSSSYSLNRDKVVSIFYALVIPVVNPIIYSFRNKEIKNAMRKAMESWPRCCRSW

SMILES	puromycin resistance in presence of odorant versus solvent control (OR10G7)	puromycin resistance in presence of odorant versus solvent control (OR10G9)	puromycin resistance in presence of odorant versus solvent control (OR5AN1 [2])	puromycin resistance of clone 3 in presence of odorant (OR5A2 (clone 3))	other results
CCOc1cc(C=O)ccc1O [ethyl vanillin]	–	–	–	–	blasticidin resistance in presence of odorant versus solvent control (OR5AN1 [1]): equally sensitive to blasticidin as in presence of the solvent control; blasticidin resistance in presence of odorant versus solvent control (OR5AN1 [1]; listed as ethylvanillin): does not increase resistance over solvent control
CCOc1cc(C)ccc1O [ultravanil, vanilla cresol]	increased resistance to puromycin; also recorded: strongly enhanced puromycin resistance	increased resistance to puromycin; also recorded: selectively enhanced resistance	do not increase resistance over solvent control; also recorded: the resistance was equal to the solvent control	–	–
CC=Cc1ccc(O)c(OC)c1 [isoeugenol]	increased resistance to puromycin; also recorded: strongly enhanced puromycin resistance	no increased resistance	do not increase resistance over solvent control; also recorded: the resistance was equal to the solvent control	–	–
C/C=C/c1ccc(OCC)c(O)c1 [vanitrope, propenyl guaethol]	increased resistance to puromycin; also recorded: strongly enhanced puromycin resistance	increased resistance to puromycin; also recorded: selectively enhanced resistance	–	–	colonies selected with the ligand that contained OR10G4 [3]: 8 out of 8
CC(OC(C)(C)COC(=O)C1CC1)C1CCCC(C)(C)C1 (centres unmarked) [serenolide]	–	–	–	increased resistance to puromycin	–
COc1c(C(C)(C)C)cc([N+](=O)[O-])c(C)c1[N+](=O)[O-] [musk ambrette]	–	–	–	increased resistance to puromycin	survival of clone 3 under puromycin treatment with ligand (OR5A2 (clone 3); musk ambrette 30 μM, puromycin 3 μg/ml, continuous exposure): able to survive puromycin treatment in presence of the ligand musk ambrette but not in its absence
